Publication PMC5995255, “CD44 positive and sorafenib insensitive hepatocellular carcinomas respond to the ATP-competitive mTOR inhibitor INK128” (Oncotarget, 2018)

Experiments:
phosphorylation of 4EBP1 = assay: Immunoblotting of phosphorylated 4EBP1; type: cell-based, human; settings: CD44high cells; 48 h
Protocol: (§1) Cell protein lysates (20–30 μg) were separated on NuPAGE 4–12% Bis-Tris gels (Novex) electrophoretically and transferred to polyvinylidene difluoride membranes (Roche). Membranes were blocked for 1 h with 5% Bovine Serum Albumin in Tris-buffered saline containing 0.05% Tween 20 and incubated overnight with primary antibody. The following primary antibodies were used: anti-CD44 (Cell signaling, #3578), anti-vimentin (Abcam, ab92547), anti-total S6K (Cell signaling, # 2708), anti-phosphorylated S6K (Cell signaling, #9234), anti-total 4EBP-1 (Cell signaling, #9644), anti-phosphorylated 4EBP-1(Cell signaling, #2855) and anti-PARP (Cell signaling # 9532) Anti-GAPDH (Santa Cruz Biotechnology, sc-32233) and anti-β actin (Cell Signaling, 4970S) antibodies were used as loading controls. A secondary anti-rabbit (Cell Signaling) or anti-mouse immunoglobulin G (IgG) antibody peroxidase conjugate (GE Healthcare) was detected using ECL Western Blotting Analysis System (Amersham Biosciences).

phosphorylation of S6K = assay: Immunoblotting of phosphorylated S6K; type: cell-based, human; settings: CD44high cells; 48 h
Protocol: as §1

[1] = test system: SK-Hep1 subcutaneous xenografts; assay: SK-Hep1 xenograft efficacy study; type: in vivo, athymic nude mice
Protocol: Immunodeficient athymic nude male mice (8 weeks) were obtained from Charles River laboratories and kept in the University's animal housing facility. SK-Hep1 cells were prepared from a low-passage, logarithmically growing population of cells. SK-Hep1 (3 × 10^6 cells) were suspended in 150 ul of Matrigel (Corning, NY, USA) and injected subcutaneously into the right flank of the mice. Three weeks after implantation, tumor sizes were measured using a Fisherbrand™ Traceable™ Digital Caliper (Thermo), the animals were randomized based on tumor size, and treatment was initiated. Tumor size measurements were taken twice a week throughout the treatment period.
Athymic nude mice bearing SK-Hep1 tumors were randomized into four groups (n = 10 per group); vehicle, sorafenib, INK128 and combination. Sorafenib (10 mg/kg) was prepared as a 4× stock solution in cremophor EL:ethanol (50:50), and diluted using water on the day of the treatment. Vehicle and sorafenib groups received their respective treatments every day via oral gavage. INK128 (3 mg/kg) was prepared in 10% DMSO and dosed via oral gavage every other day. The combination group received a daily dose of sorafenib (10 mg/kg) along with INK128 (3 mg/kg) every other day. Mice were monitored every day, and body weight and tumor size measurements were recorded twice a week throughout the treatment period. Tumor volume was calculated using the equation V= ½ × L × W^2. Treatment was continued for 24 days after which the animals were euthanized. Tumor growth is represented as percentage change from baseline tumor volume.

SNU423 cells = assay: Wound healing (in vitro migration) assay; type: cell-based, human; settings: 500 nM; 30 h migration
Protocol: SNU423 cells were treated with either INK128 or everolimus at 500 nM or vehicle control (1% DMSO). At 24 h after treatment or transfection, 70 μl of the treated cells (3 × 10^5 cells/mL) was placed into each well of ibidi culture-insert (ibidi, LLC). After an overnight incubation, the culture insert was removed to create a cell-free gap in a monolayer of the cells. The gap closure area was photographed and analyzed by Tscratch software. Wound healing assay was further performed using Huh7 and PLC/PRF/5 cells to determine the effects of CD44 overexpression of migration. The percentage of the gap closure area based on the initial point at time zero was calculated from at least two independent experiments.

[2] = test system: CD44 and vimentin protein expression in SNU423 cells; assay: Immunoblotting of CD44 and vimentin protein; type: cell-based, human; settings: 48 h; SNU423 (rapalogs also SNU449)
Protocol: as §1

[3] = test system: sorafenib resistant Huh7 cells; assay: Cell proliferation, WST-1 assay, sorafenib resistant Huh7; type: cell-based, human; settings: 72 h
Protocol: A sorafenib-resistant Huh7 cell line was established by long term exposure to incremental concentrations of sorafenib (LC Laboratories, USA) as reported. Following six months of culture in 10 cm cell culture dishes, resistant cells were diluted out in 96 well plates and single cell clones were selected and scaled up to be used in further experiments.

[4] = test system: CD44high HCC cells (SNU423, SNU449, SK-Hep-1); assay: Cell proliferation, WST-1 assay, CD44high HCC cells; type: cell-based, human
[5] = INK128 plasma pharmacokinetic study; type: in vivo, ICR mice
Protocol: All animal experiments were carried out under protocols approved by the Institutional Laboratory Animal Care and Use Committee at the Ohio State University. Imprinting control region (ICR) female mice (6 weeks) were obtained from Charles Rivers (Wilmington, MA, USA). Mice were acclimated in the animal housing facility for one week before the start of the study. After overnight fasting, INK128 (3 mg/kg) was administered by oral gavage (PO) in 10% DMSO. At different time points, mice were euthanized by carbon dioxide asphyxiation, and blood was immediately collected by cardiac puncture into lithium heparinized tubes (BD Microtainer, Becton, Dickson and Company, NJ, USA). Blood samples were centrifuged at 6000 × g for 5 min at 4°C. Plasma was collected and kept on dry ice before being stored at −80°C until analysis.
Plasma samples were thawed on ice. Blank mouse plasma was used for standard curves. Plasma aliquots (100 ul) were spiked with hesperetin (10 ul, 5000 ng/ml) as an internal standard and mixed by vortexing. Drugs were extracted with simple protein precipitation using cold acetonitrile, and the mixture was centrifuged at 13000 × g for 10 min. The supernatant was collected and dried under nitrogen. Dried samples were reconstituted with 200 ul 1% formic acid. Samples were analyzed using liquid chromatography–tandem mass spectrometry (LC-MS/MS) system consisting of Thermo Accela UHPLC pump, Thermo PAL autosampler, and Thermo TSQ Discovery triple quadruple mass spectrometer (Thermo, Waltham, MA, USA). Chromatographic separation was done using an Agilent Zobrax Extend C-18 column. Linear gradient elution was used at a flow rate of 400 ul/min, with a mobile phase of […] and 95% acetonitrile, modified with 0.2% formic acid. Non-compartmental analysis of the pharmacokinetic parameters as well as compartmental model fitting of the data was carried using Phoenix® 7.0 (Certara, New Jersey, USA).

[6] = test system: Huh7CD44, PLC/PRF/5CD44, Huh7EV and PLC/PRF/5EV cells; assay: Cell proliferation, WST-1 assay, CD44 overexpressing versus empty vector cells; type: cell-based, human; settings: 72 h
Protocol: An optimized DNA fragment for CD44 overexpression was designed and ordered from Invitrogen using GeneArt® Gene Synthesis. The optimized DNA fragment was cloned using GeneArt® Seamless Cloning technology into a p-EGFP-C1 vector graciously obtained from Matthew Wood's Lab. Huh7 and PLC/PRF/5 cells (CD44low) were transfected with 1500 ng of either CD44 vector or empty vector using Lipofectamine 3000 (Invitrogen). Forty-eight h after transfection, cells were selected using 150 μg/ml hygromycin (Life Technologies). Western blotting was used to confirm successful transfection and expression of CD44.

[7] = test system: CD44 or vimentin mRNA in SNU423 cells; assay: qRT-PCR of CD44 and vimentin mRNA; type: cell-based, human; settings: 500 nM; 48 h
Protocol: Total RNA was isolated from ATP-competitive mTOR inhibitor treated cells using miRNeasy® Mini kit (Qiagen). cDNA was synthesized according to the manufacturer's protocol (Invitrogen). Five hundred ng of total RNA was used to synthesize cDNA using random primers. cDNA was analyzed for gene expression using gene specific primers (IDT) and the Express SYBR® GreenER qPCR super mix (Invitrogen). Data were normalized to 18S rRNA and the relative expression of genes was presented using the comparative CT method. The following primers were used; CD44: 5′-TGCAGTT […]-3′ (forward) and 5′-[…]-3′ (reverse), Vimentin: 5′-CAGC […]-3′ (forward) and 5′-ATCCT […]-3′ (reverse), 18S: 5′-GT […]-3′(forward) and 5′-CCAT […]-3′(reverse)

[8] = test system: HCC cell lines (SNU423, SNU449 and Huh7); assay: Cell proliferation, WST-1 assay, three HCC cell lines; type: cell-based, human; settings: 48 h
[9] = 3 mg/kg oral gavage, single dose, plasma
[10] = female, ICR, mouse, plasma, po, 3 mg/kg, 3 mg/kg oral gavage, single dose
[11] = female, ICR, mouse, 3 mg/kg oral gavage, single dose, plasma

CC(C)n1nc(-c2ccc3oc(N)nc3c2)c2c(N)ncnc21 [INK128]
phosphorylation of 4EBP1 (phosphorylation of 4EBP1): inhibited
phosphorylation of S6K (phosphorylation of S6K): inhibited
reduction of tumor burden compared to vehicle control or sorafenib alone ([1]; 3 mg/kg every other day oral): up to 30%
reduction in tumor volume (from baseline) ([1]; INK128 3 mg/kg every other day oral, alone or with sorafenib 10 mg/kg daily, 24 days): 24%
decrease of cell movement compared to vehicle control (SNU423 cells): 50%
CD44 and vimentin protein expression [2]: great reduction
anti-proliferative effects versus wildtype CD44low Huh7 cells [3]: greater anti-proliferative effects
reduction of proliferation in CD44high compared to CD44low cells ([4]; 72 h, CD44low: Huh7, PLC/PRF/5, HepG2): more effective
inhibition at 0.1 µM ([4]; Homo sapiens, 100 nM, CD44high cells (Figure 1C), read-out: inhibition in cellular proliferation): 60%
anti-proliferative activity versus allosteric mTOR inhibitors ([4]; SNU423 and SNU449 cells, 48 h): better anti-proliferative activity than rapamycin and everolimus
time with drug concentrations greater than 100 nM ([5]; 3 mg/kg oral gavage): approximately 16 h
CL [5, 9]: 0.000582 L/min
Cmax [5, 9]: 2030 nM
tolerability ([5]; 3 mg/kg oral, all animals of the pharmacokinetic study): well tolerated
Cmax [5, 10]: 2030 nM
Tmax [5, 10]: ≤ 0.25 h
concentration at 24 h ([5]; female, ICR, mouse, plasma, 3 mg/kg oral gavage, 24 h, read-out: plasma concentration 24 h post dose): 24.6 nM
AUC(0-t) [5, 11]: 7.38 µM·h
half-life [5, 11]: 1.81 h
anti-proliferative response of CD44 expressing cells versus empty vector cells ([6]; 500 nM): responded better
CD44 or vimentin mRNA [7]: no change

CO[C@H]1C[C@@H]2CC[C@@H](C)[C@@](O)(O2)C(=O)C(=O)N2CCCC[C@H]2C(=O)O[C@H]([C@H](C)C[C@@H]2CC[C@@H](O)[C@H](OC)C2)CC(=O)[C@H](C)/C=C(\C)[C@@H](O)[C@@H](OC)C(=O)[C@H](C)C[C@H](C)/C=C/C=C/C=C/1C [rapamycin]
phosphorylation of 4EBP1 (phosphorylation of 4EBP1): did not inhibit
phosphorylation of S6K (phosphorylation of S6K): blocked
CD44 and vimentin protein expression [2]: did not alter
proliferation (lowest level reached) [8]: ≥ 40%

CNC(=O)c1cc(Oc2ccc(NC(=O)Nc3ccc(Cl)c(C(F)(F)F)c3)cc2)ccn1 [sorafenib]
tumor size increase compared to baseline ([1]; 10 mg/kg daily oral gavage, 24 days): 46%
inhibition in tumor growth compared to vehicle control ([1]; 10 mg/kg daily oral, not significant): approximately 15%
ability to reduce proliferation as a function of CD44 protein [6]: no difference

CO[C@H]1C[C@@H]2CC[C@@H](C)[C@@](O)(O2)C(=O)C(=O)N2CCCC[C@H]2C(=O)O[C@H]([C@H](C)C[C@@H]2CC[C@@H](OCCO)[C@H](OC)C2)CC(=O)[C@H](C)/C=C(\C)[C@@H](O)[C@@H](OC)C(=O)[C@H](C)C[C@H](C)/C=C/C=C/C=C/1C [everolimus]
phosphorylation of 4EBP1 (phosphorylation of 4EBP1): did not inhibit
phosphorylation of S6K (phosphorylation of S6K): blocked
decrease of cell movement compared to vehicle control (SNU423 cells): 20%
CD44 and vimentin protein expression [2]: did not alter
proliferation (lowest level reached) ([8]; even at 5000 nM): ≥ 40%
